# Test: HILIC, HILICON iHILIC-(P) Classic, HILIC, PEEK, 100 × 2.1 mm, 5 µm, 40 °C, 0.2 mL/min, estimated dead time 1.1 min; A: water + 20 mM ammonium carbonate + 5 µM medronic acid; B: 10% water + 90% acetonitrile + 2 mM ammonium carbonate + 0.5 µM medronic acid; gradient (min/%B) 0/95 18/55 19/20 22/20 22.5/95 24/95 26/95
# Settings: stereoisomer not certain
row,Structure (SMILES),LC retention time [min]
1,Nc1ncnc2c1ncn2C1OC(COP(=O)(O)O)C(O)C1O (centres undefined) [AMP],10.1
2,Nc1ncnc2c1ncn2C1OC(CO)C(O)C1O (centres undefined) [Adenosine],4.79
3,NC(=O)c1ccc[n+](C2OC(COP(=O)(O)OP(=O)(O)OCC3OC(n4cnc5c(N)ncnc54)C(O)C3O)C(O)C2O)c1 (centres undefined) [NAD],11.1
4,CC(C)(COP(=O)(O)OP(=O)(O)OCC1OC(n2cnc3c(N)ncnc32)C(O)C1OP(=O)(O)O)C(O)C(=O)NCCC(=O)NCCS (centres undefined) [CoenzymeA],11.5
5,O=C(CO)COP(=O)(O)O [Triose phosphate],11.8
6,Nc1ncnc2c1ncn2C1OC(COP(=O)(O)OP(=O)(O)O)C(O)C1O (centres undefined) [ADP],11.9
7,NC(=O)C1=CN(C2OC(COP(=O)(O)OP(=O)(O)OCC3OC(n4cnc5c(N)ncnc54)C(O)C3O)C(O)C2O)C=CC1 (centres undefined) [NADH],9.08
8,NC(=O)C1=CN(C2OC(COP(=O)(O)OP(=O)(O)OCC3OC(n4cnc5c(N)ncnc54)C(OP(=O)(O)O)C3O)C(O)C2O)C=CC1 (centres undefined) [NADPH],15.2
9,NC(=O)c1ccc[n+](C2OC(COP(=O)(O)OP(=O)(O)OCC3OC(n4cnc5c(N)ncnc54)C(OP(=O)(O)O)C3O)C(O)C2O)c1 (centres undefined) [NADP],14.4
10,NC(CCC(=O)NC(CSSCC(NC(=O)CCC(N)C(=O)O)C(=O)NCC(=O)O)C(=O)NCC(=O)O)C(=O)O (centres undefined) [GSSG],14.7
11,O=P(O)(O)OCC1OC(O)C(O)C1O (centres undefined) [Pentose-phosphate],11.6
12,O=P(O)(O)OCC1OC(O)C(O)C(O)C1O (centres undefined) [Glucose-6-phosphate],13.9
13,CC(=O)SCCNC(=O)CCNC(=O)C(O)C(C)(C)COP(=O)(O)OP(=O)(O)OCC1OC(n2cnc3c(N)ncnc32)C(O)C1OP(=O)(O)O (centres undefined) [Acetyl-CoA],9.93
14,O=C(CO)C(O)C(O)C(O)COP(=O)(O)O (centres undefined) [Fructose 6-phosphate],11.9
15,"O=P(O)(O)OCC1OC(O)(COP(=O)(O)O)C(O)C1O (centres undefined) [Fructose-1,6-bisphosphate]",16.4
16,O=P(O)(O)OCC(O)CO (centres undefined) [Glycerol-3-phosphate],10.8
17,C=C(OP(=O)(O)O)C(=O)O [PEP],14.6
18,O=P(O)(O)OC1OC(CO)C(O)C(O)C1O (centres undefined) [Glucose-1-phosphate],11.9
19,CC(=O)NC1C(OP(=O)(O)OP(=O)(O)OCC2OC(n3ccc(=O)[nH]c3=O)C(O)C2O)OC(CO)C(O)C1O (centres undefined) [UDP-GlcNAc],12
20,Nc1ncnc2c1ncn2C1OC(COP(=O)(O)OP(=O)(O)OP(=O)(O)O)C(O)C1O (centres undefined) [ATP],13.3

# More lines, now with the values ahead:
row,LC retention time [min],Structure (SMILES)
1,9.7,NC(CCC(=O)O)C(=O)O (centres undefined) [Glutamic acid]
2,10.2,NC(CCC(=O)NC(CS)C(=O)NCC(=O)O)C(=O)O (centres undefined) [GSH]
3,10.2,NC(CC(=O)O)C(=O)O (centres undefined) [Aspartic Acid]
4,9.65,NC(=O)CC(N)C(=O)O (centres undefined) [Asparagine]
5,11.9,O=C(O)CC(O)C(=O)O (centres undefined) [Malic Acid]
6,15.5,O=C(O)CC(C(=O)O)C(O)C(=O)O (centres undefined) [Isocitric acid]
7,18.5,NC(N)=NCCCC(N)C(=O)O (centres undefined) [Arginine]
8,12.7,O=C(O)CCC(=O)C(=O)O [2-Oxoglutaric acid]
9,15.3,O=C(O)CC(O)(CC(=O)O)C(=O)O [Citric acid]
10,9.81,NC(=O)CCC(N)C(=O)O (centres undefined) [Glutamine]
11,11.2,O=C(O)CCC(=O)O [Succinic Acid]
12,12.4,O=C(O)C=CC(=O)O [Fumaric Acid]
13,3.92,CC(O)C(=O)O (centres undefined) [Lactic Acid]
14,18.3,NCCCCC(N)C(=O)O (centres undefined) [Lysine]

# Reference: the RepoRT retention time repository
